The record followed here is patent US6107271A, “Neuroactive peptides” (NYXIS Neuro Therapies, Inc., priority 1998, dated 2000).

In test [1] the target is T1, NMDA receptor complex, glycine co-agonist site (Rattus norvegicus, UniProt P35439).
T1 construct: Crude synaptic membranes used in the assay were prepared using rat hippocampal tissue; from tissue; host or cells: rat hippocampus, crude synaptic membranes
It is filed as biochemical. To be noted: rat hippocampus membranes, in the presence of 7-chlorokynurenic acid, ± S.E.M. The method, then:
Polypeptides or amino acid compositions of the instant invention were tested for the ability to mimic the glycine co-agonist effect on the NMDA receptor using a previously validated [^3 H]MK-801 binding assay. This functional assay takes advantage of the fact that increased [^3 H]MK-801 binding by NMDA receptors can only occur upon receptor-binding channel opening. This is because the MK-801 binding site is located inside the ionophore of the NMDA receptor complex, and is thus only accessible upon the opening of the receptor complex channel. Thus increased binding of [^3 H]MK-801 is directly correlated with increased channel opening, in this assay, triggered by the binding of the polypeptides or amino acid compositions of the instant invention to the glycine co-agonist binding site.
To further refine the assay, a selective antagonist of the glycine binding site of the NMDA receptor-channel complex is added to the assay. The normal action of 7-chlorokynurenic acid is to selectively bind to the glycine site, and inhibit NMDA receptor channel opening, and thus inhibit the binding of [^3 H]MK-801 to the NMDA receptor complex.
Crude synaptic membranes used in the assay were prepared using rat hippocampal tissue (male Sprague-Dawly rats) and extensively washed using the procedures described previously (Haring et al., 1991, J. Neurochem. 57:323-331). Briefly, tissue which has been stored at -80-- C is homogenized in ice cold 5 mM Tris (pH 7.4) using a Brinkman Polytron® and then pelleted by centrifugation at 48,000 g for 20 minutes. The resulting supernatant is discarded, and the membranes washed three times in cold buffer. Pellets are then resuspended in 5 mM EDTA, 15 mM Tris (pH 7.4), and incubated for one hour at 37-- C. The membrane suspensions are then pelleted by centrifugation at 48,000g for 20 min and stored at -80-- C until use in the assay.
Frozen pellets are thawed at room temperature and washed three times by resuspension in 5 mM Tris (pH 7.4) and centrifugation. Final pellets are suspended at concentrations of 2 to 3 mg/ml in 5 mM Tris buffer (pH 7.4). Binding reactions are initiated by the addition of 200-- g of freshly prepared membranes to reaction mixtures (about 1 ml final volume) containing 1 nM [^3 H]MK-801 at 25-- C in the presence of a range of peptide concentrations and 60-- M 7-chlorokynurenic acid. Non-specific binding is determined using 10-- M unlabelled MK-801. Binding reactions are terminated by filtration through a Brandel 24-well cell harvester onto Whatman GF/B glass filters that have been presoaked in 0.25% polyethyleneimine for 30 minutes.

The target of test [2] is T1, NMDA receptor complex, glycine co-agonist site. It is filed as biochemical. To be noted: in the presence of 10 μM L-glutamate, ± S.E.M.
In test [3] the target is T2, mouse NMDA receptor subunits z1 and e1 expressed in oocytes (Mus musculus, UniProt P35438).
T2 construct: expressed in transfected cells
Kind of test: Electrophysiological NMDA specific activity assay, two-electrode voltage clamp in oocytes. It is filed as cell-based. On the procedure: Electrophysiological recordings are made with two-electrode voltage-clamp techniques, and standard oocyte expression system preparations (see Leonard and Kelso, 1990, Neuron 4:53-60; Kelso et al., 1992, J. Physiology 449:705-718). Oocytes are isolated and injected with mRNA for mouse NMDA receptor subunits: 70 nl of z1 (-- 1) RNA is co-injected with an equal volume of e1 (-- 1) RNA. After incubation for two days, recordings are made while clamping membrane potential at -80 mV. The standard recording solution contains 95 mM NaCl, 2 mM KCl, 3.8 mM BaCl2, and 5 mM HEPES. Mg^2+ is omitted because it blocks NMDA currents at some potentials; Ca^2+ is omitted because it can trigger the oocyte's endogenous Ca^2+ -dependent chloride current. Responses are evoked by the continuous perfusion of 3-5 ml of NMDA containing solutions. The recording chamber has a volume of about […].

Where two headings read alike, the source gives them in different places. Positions of bridges follow the written chain, without caps; N, C: chain ends. Residues, ends and D or L forms follow the SMILES beside them. No end group written: not given here.

With QQHYSTPPTFGGG [NT-8], the “[3H]MK-801 binding, percentage of control binding” value (from here on “[3H]MK-801 binding, percentage”) is given as 115 ± 6% in test [1] (10^-5 M peptide); 107 ± 6% in test [1] (10^-6 M peptide); 108 ± 4% in test [1] (10^-7 M peptide); 110 ± 5% in test [1] (10^-8 M peptide); 105 ± 7% in test [1] (10^-9 M peptide).
Consider SVQAELDLAVYYSQQHYSTPPT [NT-6], for which the “[3H]MK-801 binding, percentage” value in test [1] (10^-5 M peptide) came out at 91 ± 7%; in test [1] (10^-6 M peptide) it was 96 ± 1%; in test [1] (10^-7 M peptide) it was 101 ± 15%; in test [1] (10^-8 M peptide), 101 ± 9%; in test [1] (10^-9 M peptide), 95 ± 6%.
For QQHYSTPPTFGGGTKLE [NT-9], in that order: 120 ± 3%, 112 ± 10%, 125 ± 5%, 126 ± 7% and 104 ± 12%.
As for “SASYRYT [NT-2, Ser-Ala-Ser-Tyr-Arg-Tyr-Thr]”, the “[3H]MK-801 binding, percentage” value in test [2] (10^-5 M peptide) came to 77 ± 12%; in test [2] (10^-6 M peptide), 106 ± 4%; in test [2] (10^-7 M peptide), 109 ± 15%; in test [2] (10^-8 M peptide), 80 ± 9%.
As for `C[C@@H](O)[C@H](N)C(=O)N1CCC[C@H]1C(=O)N1CCC[C@H]1C(=O)O` [NT-14, Thr-Pro-Pro] (H-Thr-Pro-Pro-OH), the “[3H]MK-801 binding, percentage” value in test [1] (10^-5 M peptide) is listed as 95 ± 4%; in test [1] (10^-6 M peptide), 98 ± 8%; in test [1] (10^-7 M peptide) it was 96 ± 5%; in test [1] (10^-8 M peptide) it was 101 ± 1%; in test [1] (10^-9 M peptide), 89 ± 6%.
On to QQHYS [NT-12, Gln-Gln-His-Tyr-Ser], for which the “[3H]MK-801 binding, percentage” value is 106 ± 2% in test [1] (10^-5 M peptide); 106 ± 9% in test [1] (10^-6 M peptide); 95 ± 7% in test [1] (10^-7 M peptide); 104 ± 10% in test [1] (10^-8 M peptide); 95 ± 21% in test [1] (10^-9 M peptide).
For the compound `NCC(=O)O` [glycine], the “NMDA current (FIG. 3B)” value in test [3] (100-- M NMDA with 10-- M glycine, -80 mV) is on record as “about 284 nA”.
As to `C[C@@H](O)[C@H](NC(=O)[C@@H]1CCCN1C(=O)[C@@H]1CCCN1)C(=O)O` [NT-15, Pro-Pro-Thr] (H-Pro-Pro-Thr-OH), the “[3H]MK-801 binding, percentage” value was 93 ± 1% in test [1] (10^-5 M peptide); 108 ± 12% in test [1] (10^-6 M peptide); 100 ± 7% in test [1] (10^-7 M peptide); 103 ± 2% in test [1] (10^-8 M peptide); 99 ± 21% in test [1] (10^-9 M peptide).
For VYYSQQHYSTPPT [NT-4], in that order: 109 ± 10%, 110 ± 1%, 116 ± 2%, 106 ± 6% and 106 ± 2%.
For `C[C@@H](O)[C@@H]1NC(=O)[C@@H]2CCCN2C(=O)[C@@H]2CCCN2C(=O)[C@H]([C@@H](C)O)NC(=O)[C@H](CO)NC(=O)[C@H](Cc2ccc(O)cc2)NC(=O)[C@H](Cc2c[nH]cn2)NC(=O)[C@H](CCC(N)=O)NC(=O)[C@H](CCC(N)=O)NC(=O)[C@@H](N)CSSC[C@@H](C(=O)O)NC1=O` [NT-10] (H-CQQHYSTPPTC-OH; disulfide 1-11), in that order: 116 ± 12%, 128 ± 4%, 114 ± 3%, 90 ± 8% and 100 ± 2%.
For `C[C@@H](O)[C@H](N)C(=O)N1CCC[C@H]1C(=O)N1CCC[C@H]1C(=O)N[C@H](C(=O)O)[C@@H](C)O` [NT-13, Thr-Pro-Pro-Thr] (H-TPPT-OH), in that order: 117 ± 7%, 129 ± 10%, 110 ± 10%, 103 ± 8% and 97 ± 8%.
In the case of EDLAVYYSQQHYSTPPT [NT-5], the “[3H]MK-801 binding, percentage” value in test [1] (10^-5 M peptide) turned out to be 112 ± 4%; in test [1] (10^-6 M peptide), 106 ± 2%; in test [1] (10^-7 M peptide) it was 114 ± 2%; in test [1] (10^-8 M peptide), 100 ± 9%; in test [1] (10^-9 M peptide), 109 ± 8%.
Take FTISSVQAELDLAVYYSQQHYSTPPT [NT-7]: the “[3H]MK-801 binding, percentage” value in test [1] (10^-5 M peptide) is 100 ± 3%; in test [1] (10^-6 M peptide), 104 ± 0%; in test [1] (10^-7 M peptide) it was 97 ± 1%; in test [1] (10^-8 M peptide), 103 ± 4%; in test [1] (10^-9 M peptide), 96 ± 4%.
For the compound `C[C@@H](O)[C@H](N)C(=O)N1CCC[C@H]1C(=O)N[C@H](C(=O)O)[C@@H](C)O` [NT-17, Thr-Pro-Thr] (H-Thr-Pro-Thr-OH), the “[3H]MK-801 binding, percentage” value worked out at 119 ± 21% in test [1] (10^-5 M peptide); 117 ± 14% in test [1] (10^-6 M peptide); 128 ± 9% in test [1] (10^-7 M peptide); 125 ± 17% in test [1] (10^-8 M peptide); 122 ± 23% in test [1] (10^-9 M peptide).
For `O=C(O)[C@@H]1CCCN1C(=O)[C@@H]1CCCN1` [NT-16, Pro-Pro] (H-Pro-Pro-OH), in that order: 117 ± 12%, 103 ± 3%, 97 ± 6%, 89 ± 8% and 83 ± 9%.
With KASQDVSTTVA [NT-1], the “[3H]MK-801 binding, percentage” value was determined as 73 ± 6% in test [2] (10^-5 M peptide), 100 ± 2% in test [2] (10^-6 M peptide) and 97 ± 2% in test [2] (10^-7 M peptide).
For QQHYSTPPT [NT-3], the “[3H]MK-801 binding, percentage” value in test [1] (10^-5 M peptide) came out at 90 ± 1%; in test [1] (10^-6 M peptide) it was 111 ± 11%; in test [1] (10^-7 M peptide), 121 ± 4%; in test [1] (10^-8 M peptide), 123 ± 0%; in test [1] (10^-9 M peptide), 112 ± 20%.
For SQQHYSTPPTS [NT-11], the “[3H]MK-801 binding, percentage” value in test [1] (10^-5 M peptide) worked out at 127 ± 21%; in test [1] (10^-6 M peptide), 120 ± 11%; in test [1] (10^-7 M peptide), 118 ± 4%; in test [1] (10^-8 M peptide), 111 ± 4%; in test [1] (10^-9 M peptide), 96 ± 23%.
Turning to `CN[C@H](CC(=O)O)C(=O)O` [NMDA, N-methyl-D-aspartate], in test [3] (NMDA alone, same cell), the “NMDA current (FIG. 3B)” value is “about 7 nA”.
